Values belong to the compound of their own block, whether it stands above or below them.
Columns and labels:
CDK9/CycT1 = biological target: T1, CDK9/CycT1 (Homo sapiens, UniProt P50750); assay: ADP-Glo kinase assay; type: biochemical
T1 construct: purchased SignalChem
Experimental: ADP-Glo assay kit was purchased from Promega and the CDK9/CycT1 protein and PDKtide substrate were purchased from SignalChem. […] The reaction was started by pre-incubating 4 μL of protein (20 nM), 2 μL of substrate (100 μM), and 2 μL of serial diluted drug in 1× assay buffer (50 mM HEPES, 3 mM MgCl2, 3 mM MnCl2, and 1 mM DTT) for 30 minutes. After pre-incubating, 4 μL of ATP (1 μM) was added to each well and incubated for an additional 90 minutes. The ADP-Glo Reagent (10 μL) and Kinase Detection Reagent (20 μL) were added to each well and incubated as recommended by Promega. The reaction was quantified by measuring luminescence and the IC50 was calculated using GraphPad Prism software.

[1] = test system: RWPE-1 Normal Prostate Cells; assay: CellTiter-Glo 2D cell viability assay in normal prostate cells; type: cell-based
Experimental: (§1) Multiplexing the LDH-Glo Cytotoxicity Assay and CellTiter-Glo 2D Cell Viability Assay. […] Change in toxicity was measured using the LDH-Glo Cytotoxicity Assay by combining 50 μL diluted samples with 50 μL LDH Detection Reagent and recording luminescence after 1 hour incubation. After samples were removed for LDH measurement, an equal volume of CellTiter Glo 2D Reagent was added to the remaining cell suspension and luminescence was recorded after 30-minute incubation period.

[2] = test system: RWPE-1 Normal Prostate Cells; assay: LDH-Glo cytotoxicity assay in normal prostate cells; type: cell-based; conditions: Homo sapiens, 72 hours
Experimental: as §1

22Rv1 = assay: 2D CellTiter-Glo cell viability assay; type: cell-based; conditions: Homo sapiens; 22Rv1, 72 hours
Experimental: (§2) CellTiter-Glo® 2.0 Luminescent cell viability assay reagent was purchased from Promega and 22Rv1 and LASCPC-01 cell lines were purchased from ATCC. […] An equal volume of CellTiter-Glo 2D Reagent was added to the cell suspensions and luminescence was recorded after 30-minute incubation period. […] FIG. 2 illustrates cellular antiproliferative efficacy of a benchmark CDK9 inhibitor AD-4573 on six prostate cancer cell lines over various concentrations.
(§3) CellTiter-Glo® 2.0 Luminescent cell viability assay reagent was purchased from Promega and 22Rv1, LASCPC-01, C4-2, C4-2B and NCI-H660, DU-145, PC-3 and LNCap cell lines were obtained from ATCC and a clinical core facility at Huntsman Cancer Institute. […] The results of cell viability were obtained and IC50 values were calculated (see Table 5, below) showing sub-micromolar cell killing of these prostate cancer cells.

DU-145 = assay: 2D CellTiter-Glo cell viability assay; type: cell-based; conditions: Homo sapiens; DU-145, 72 hours
Experimental: as §2, §3

LASCPC-01 = assay: 2D CellTiter-Glo cell viability assay; type: cell-based; conditions: 72 h, LASCPC-01, 72 hours
Experimental: as §2, §3

LNCap = assay: 2D CellTiter-Glo cell viability assay; type: cell-based; conditions: Homo sapiens, 72 hours
Experimental: as §2, §3

NCI-H660 = assay: 2D CellTiter-Glo cell viability assay; type: cell-based; conditions: NCI-H660, 72 hours
Experimental: as §2, §3

PC-3 = assay: 2D CellTiter-Glo cell viability assay; type: cell-based; conditions: Homo sapiens, PC-3, 72 h
Experimental: as §2, §3

C4-2 = assay: 2D CellTiter-Glo cell viability assay; type: cell-based, human; conditions: Homo sapiens, C4-2, 72 h
Experimental: as §3

C4-2B = assay: 2D CellTiter-Glo cell viability assay; type: cell-based; conditions: 72 h
Experimental: as §3

T1 sequence (P50750 whole entry): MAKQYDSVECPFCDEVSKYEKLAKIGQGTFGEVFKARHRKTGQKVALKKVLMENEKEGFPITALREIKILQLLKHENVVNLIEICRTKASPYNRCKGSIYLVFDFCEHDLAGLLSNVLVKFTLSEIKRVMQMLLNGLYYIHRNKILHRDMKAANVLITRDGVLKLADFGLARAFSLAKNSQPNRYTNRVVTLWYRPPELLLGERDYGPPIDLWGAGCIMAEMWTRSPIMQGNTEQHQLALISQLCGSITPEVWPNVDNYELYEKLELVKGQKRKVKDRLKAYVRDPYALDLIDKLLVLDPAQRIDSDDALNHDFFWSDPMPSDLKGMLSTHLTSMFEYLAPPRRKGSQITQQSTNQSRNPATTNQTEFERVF
T1 sequence (O60563 whole entry partner): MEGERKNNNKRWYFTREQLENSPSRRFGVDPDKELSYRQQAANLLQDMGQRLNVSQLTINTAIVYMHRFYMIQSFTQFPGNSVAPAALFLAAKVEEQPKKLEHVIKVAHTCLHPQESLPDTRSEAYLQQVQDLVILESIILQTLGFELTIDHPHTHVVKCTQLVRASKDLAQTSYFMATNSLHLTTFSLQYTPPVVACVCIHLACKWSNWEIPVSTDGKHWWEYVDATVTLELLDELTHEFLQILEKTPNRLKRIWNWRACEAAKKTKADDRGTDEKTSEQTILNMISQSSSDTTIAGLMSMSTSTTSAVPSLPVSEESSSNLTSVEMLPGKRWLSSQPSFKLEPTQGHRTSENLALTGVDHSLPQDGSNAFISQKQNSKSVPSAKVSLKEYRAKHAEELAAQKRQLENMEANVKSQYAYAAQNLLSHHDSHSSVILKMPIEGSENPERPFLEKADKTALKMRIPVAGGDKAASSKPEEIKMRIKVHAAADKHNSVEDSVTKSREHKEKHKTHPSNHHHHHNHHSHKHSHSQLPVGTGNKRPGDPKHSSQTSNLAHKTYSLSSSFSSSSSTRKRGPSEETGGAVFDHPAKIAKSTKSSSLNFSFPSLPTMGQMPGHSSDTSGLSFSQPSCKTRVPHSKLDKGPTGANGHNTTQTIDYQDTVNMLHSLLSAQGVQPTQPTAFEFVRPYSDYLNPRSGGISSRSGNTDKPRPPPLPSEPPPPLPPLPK

IC50 (CDK9/CycT1): < 50 nM
Compound: CC(C)c1c2cc(-c3ccnc(N[C@H]4C[C@@H]5CCC4C5)n3)ccc2nn1C (stereo in doubt) [Compound I-13, N-((1R,2S,4R)-bicyclo[2.2.1]heptan-2-yl)-4-(3-isopropyl-2-methyl-2H-indazol-5-yl)pyrimidin-2-amine]

IC50 (CDK9/CycT1): < 50 nM
Compound: CC(C)c1c2cc(-c3ccnc(N[C@H]4C[C@@H]5CCC4C5)n3)cnc2nn1C (stereo in doubt) [Compound I-14, N-((1R,2S,4R)-bicyclo[2.2.1]heptan-2-yl)-4-(3-isopropyl-2-methyl-2H-pyrazolo[3,4-b]pyridin-5-yl)pyrimidin-2-amine]

IC50 (22Rv1): 67.1 nM | IC50 (DU-145): 151 nM | IC50 (LNCap): 1150 nM | IC50 (NCI-H660): 0.221 nM | IC50 (PC-3): 400 nM
Compound: CC(=O)N[C@@H]1CCC[C@H](C(=O)Nc2cc(-c3cnn4c3CC(C)(C)C4)c(Cl)cn2)C1 [AZD-4573, reference compound]
IC50 ([1]; Homo sapiens, RWPE-1 normal prostate cells, 72 hours): 8.4 nM | toxicity to normal prostate cells ([1]; RWPE-1): highly toxic | IC50 [2]: 151 nM | IC50 (LASCPC-01): 13.5 nM | IC50 (C4-2): 0.237 nM | IC50 (C4-2B): 0.398 nM

IC50 (CDK9/CycT1): < 50 nM
Compound: CC(C)c1c2cc(-c3ccnc(N[C@@H]4CC[C@H](N)C4)n3)ccc2nn1C [Compound I-1, (1S,3R)-[3-[4-(3-isopropyl-2-methylindazol-5-yl)pyrimidin-2-yl]aminocyclopentan-1-yl]-1,3-diamine]

IC50 (CDK9/CycT1): > 1000 nM
Compound: CC(C)c1c2nc(-c3ccnc(N[C@H]4CC[C@H](N)C4)n3)ccc2nn1C [Compound I-3, (1S,3S)-[3-[4-[3-isopropyl-2-methylpyrazolo[4,3-b]pyridin-5-yl]pyrimidin-2-yl]aminocyclopentan-1-yl]-1,3-diamine]

IC50 (CDK9/CycT1): < 50 nM
Compound: CC(C)c1c2cc(-c3ccnc(N[C@H]4CC[C@H](N)C4)n3)cc(F)c2nn1C [Compound I-4, (1S,3S)-[3-[4-(7-fluoro-3-isopropyl-2-methylindazol-5-yl)pyrimidin-2-yl]aminocyclopentan-1-yl]-1,3-diamine]

IC50 (CDK9/CycT1): < 50 nM
Compound: Cn1cc2cc(-c3ccnc(N[C@H]4CC[C@H](N)C4)n3)ccc2n1 [Compound I-6, (1S,3S)-N^1-(4-(2-methyl-2H-indazol-5-yl)pyrimidin-2-yl)cyclopentane-1,3-diamine]

IC50 (CDK9/CycT1): < 50 nM
Compound: CC(C)c1[nH]nc2ccc(-c3ccnc(N[C@H]4CC[C@H](N)C4)n3)cc12 [Compound I-7, (1S,3S)-N^1-(4-(3-isopropyl-2H-indazol-5-yl)pyrimidin-2-yl)cyclopentane-1,3-diamine]

IC50 (CDK9/CycT1): 50 to 100 nM
Compound: Cc1[nH]nc2ccc(-c3ccnc(N[C@H]4CC[C@H](N)C4)n3)cc12 [Compound I-9, (1S,3S)-N^1-(4-(3-methyl-2H-indazol-5-yl)pyrimidin-2-yl)cyclopentane-1,3-diamine]

IC50 (CDK9/CycT1): < 50 nM
Compound: CC(C)c1c2cc(-c3ccnc(N[C@H]4CC[C@H](N)C4)n3)cnc2nn1C [Compound I-10, (1S,3S)-N^1-(4-(3-isopropyl-2-methyl-2H-pyrazolo[3,4-b]pyridin-5-yl)pyrimidin-2-yl)cyclopentane-1,3-diamine]

IC50 (CDK9/CycT1): > 1000 nM
Compound: CC(C)c1nn(C)c2ncc(-c3ccnc(N[C@H]4CC[C@H](N)C4)n3)cc12 [Compound I-11, (1S,3S)-N^1-(4-(3-isopropyl-1-methyl-1H-pyrazolo[3,4-b]pyridin-5-yl)pyrimidin-2-yl)cyclopentane-1,3-diamine]

Source: patent US20240150322A1, “CDK9 Inhibitors” (Biolexis Therapeutics, Inc., priority 2022, published 2024)
